Paper PMC11928584, “H105A peptide eye drops promote photoreceptor survival in murine and human models of retinal degeneration” (Communications Medicine, 2025)

Test system: retinal function of rd10 mice
Test: Electroretinogram (scotopic a- and b-wave), rd10 mice
Format: in vivo, mouse
Details: daily eye drops of labeled peptide P15-P20, ERG P21, n=3
Experimental: Electroretinogram (ERG) for rd10 and rd10/Serpinf1^-/- mice were dark-adapted overnight and recorded in both eyes of each animal using an Espion E2 system with ColorDome (Diagnosys LLC) with a heated surface. Briefly, pupils were dilated with 1% tropicamide (Akorn, NDC: 17478-101-12) for 10 min and mice were anesthetized with intraperitoneal injection of Zetamine™ (Ketamine hydrochloride injection, USP; VetOne, NDC 13985-584-10) at 92.5 mg/kg, and AnaSed® (xylazine injection, Akorn Pharmaceuticals, NDC 59399-110-20) at 5.5 mg/kg. Mice were placed on the heated surface and electrodes were placed in the mouth and a subdermal platinum needle electrode was placed in the back of the mouse to serve as ground. Responses were elicited with increasing light impulses with intensity from 0.0001 to 10 cd-seconds per meter squared (cd.s/m^2). Amplitudes for a-wave were measured from stimulus to the trough of the a-wave and b-wave amplitudes were measured from a-wave to b-wave trough or peak. The values from the a and b waves for both eyes were exported to Microsoft Excel to obtained amplitude values for each mouse.
Fig. 5 Effect of daily eyedrops of PEDF peptides on ERG a-wave and b-wave retinal function. a Illustration of the experimental timeline of peptide application. RE and LE refer to the right and left eyes, respectively. Representative ERG waveforms for rd10 (b) and rd10/Serpinf1^-/- (c) mice at P21 in response to a light flash (1 cd.s/m²). Amplitude (y-axis) is plotted against time in milliseconds (ms, x-axis). Treatments are indicated to the right of each plot and are color coded, with control wild type C57BL/6 J mice without peptide treatment shown in blue. A-wave and b-wave are indicated by arrows. Photoreceptor a-wave amplitudes. Averages of photoreceptor a-wave amplitudes for rd10 (d) and rd10/Serpinf1^-/- (e) mice as a function of light intensity (cd/s.m², x-axis). Responses of animals treated with 17-mer are shown in green, H105A in black, and vehicle (HBSS) in red. Wildtype responses are shown in blue. Bipolar cell b-wave amplitudes. Averages of bipolar cell b-wave amplitudes for rd10 (f) and rd10/Serpinf1^-/- (g) mice as a function of light intensity (cd/s.m², x-axis), with treatments as indicated in panels. The number of mice evaluated for the data shown in Panels d-g was five (n = 5) for each rd10, rd10/Serpinf1^-/- and wild type. Each data point represents the average ± SD of each genotype, analyzed by ANOVA with Dunnett’s multiple comparisons. Statistical significance between H105A and vehicle is indicated by ##p ≤ 0.01, ###p ≤ 0.001, ####p ≤ 0.0001, and between H105A and 17-mer by **p ≤ 0.01, ***p ≤ 0.001, ****p ≤ 0.0001.

Row | ERG a-wave and b-wave retinal function | Substance
1 | improved retinal function | AlexaFl-QRTESIIHRALYYDLIS-COOH [AlexaFl-488-17-mer, 17-mer peptide conjugated to Alexa Fluor 488 dye]
2 | showed no improvement | AlexaFl-QATESIIHRALYYDLIS-COOH [AlexaFl-488-R99A, R99A peptide conjugated to Alexa Fluor 488 dye]
3 | improved retinal function | AlexaFl-QRTESIIARALYYDLIS-COOH [AlexaFl-488-H105A, H105A peptide conjugated to Alexa Fluor 488 dye]
